Results: ChEMBL document CHEMBL3407459, “Synthesis and antimicrobial activity of novel structural hybrids of benzofuroxan and benzothiazole derivatives” (2015)

Legend:
Escherichia coli [1] = test: Antibacterial activity against Escherichia coli MG1655 harboring pXen7 assessed as toxicity index at 10^-3 M measured for 2 hrs by luminometric analysis; format: functional, K-12 substr. MG1655
Escherichia coli [2] = test: Antibacterial activity against Escherichia coli MG1655 harboring pGrpE-lux assessed as maximum induction factor at 10^-14 M after 120 mins by luminometric analysis; format: functional, K-12 substr. MG1655
Escherichia coli [3] = test: Antibacterial activity against Escherichia coli MG1655 harboring pColD-lux assessed as maximum induction factor at 10^-12 M after 120 mins by luminometric analysis; format: functional, K-12 substr. MG1655
Vibrio sp. [4] = test: Antibacterial activity against Vibrio aqamarinus VKPM B-11245 assessed as toxicity index at 10^-12 M measured for 2 hrs by luminometric analysis; format: functional
Escherichia coli [5] = test: Antibacterial activity against Escherichia coli MG1655 harboring pColD-lux assessed as maximum induction factor at 10^-5 M after 120 mins by luminometric analysis; format: functional, K-12 substr. MG1655
Escherichia coli [6] = test: Antibacterial activity against Escherichia coli MG1655 harboring pColD-lux assessed as maximum induction factor at 10^-11 M after 120 mins by luminometric analysis; format: functional, K-12 substr. MG1655
[7] = Activation of quorum sensing system luxR in Escherichia coli MG1655 harboring pVFR1-lux assessed as maximum induction factor at 10^-7 M after 120 mins by luminometric analysis; settings: Escherichia coli str. K-12 substr. MG1655
Escherichia coli [8] = test: Antibacterial activity against Escherichia coli MG1655 harboring pColD-lux assessed as maximum induction factor at 10^-10 M after 120 mins by luminometric analysis; format: functional, K-12 substr. MG1655
Escherichia coli [9] = test: Antibacterial activity against Escherichia coli MG1655 harboring pColD-lux assessed as maximum induction factor at 10^-13 M after 120 mins by luminometric analysis; format: functional, K-12 substr. MG1655
Escherichia coli [10] = test: Antibacterial activity against Escherichia coli MG1655 harboring pKatG-lux assessed as maximum induction factor at 10^-3 M after 120 mins by luminometric analysis; format: functional, K-12 substr. MG1655
Escherichia coli [11] = test: Antibacterial activity against Escherichia coli MG1655 harboring pSoxS-lux assessed as maximum induction factor at 10^-11 M after 120 mins by luminometric analysis; format: functional, K-12 substr. MG1655
Escherichia coli [12] = test: Antibacterial activity against Escherichia coli MG1655 harboring pSoxS-lux assessed as maximum induction factor at 10^-9 M after 120 mins by luminometric analysis; format: functional, K-12 substr. MG1655
Escherichia coli [13] = test: Antibacterial activity against Escherichia coli MG1655 harboring pKatG-lux assessed as maximum induction factor at 10^-9 M after 120 mins by luminometric analysis; format: functional, K-12 substr. MG1655
Escherichia coli [14] = test: Antibacterial activity against Escherichia coli MG1655 harboring pSoxS-lux assessed as maximum induction factor at 10^-4 M after 120 mins by luminometric analysis; format: functional, K-12 substr. MG1655
Vibrio sp. [15] = test: Antibacterial activity against Vibrio aqamarinus VKPM B-11245 assessed as toxicity index at 10^-4 M measured for 2 hrs by luminometric analysis; format: functional
Escherichia coli [16] = test: Antibacterial activity against Escherichia coli MG1655 harboring pKatG-lux assessed as maximum induction factor at 10^-7 M after 120 mins by luminometric analysis; format: functional, K-12 substr. MG1655
Escherichia coli [17] = test: Antibacterial activity against Escherichia coli MG1655 harboring pColD-lux assessed as maximum induction factor at 10^-9 M after 120 mins by luminometric analysis; format: functional, K-12 substr. MG1655
Escherichia coli [18] = test: Antibacterial activity against Escherichia coli MG1655 harboring pIbpA-lux assessed as maximum induction factor at 10^-5 M after 120 mins by luminometric analysis; format: functional, K-12 substr. MG1655
Escherichia coli [19] = test: Antibacterial activity against Escherichia coli MG1655 harboring pColD-lux assessed as maximum induction factor at 10^-7 M after 120 mins by luminometric analysis; format: functional, K-12 substr. MG1655
Escherichia coli [20] = test: Antibacterial activity against Escherichia coli MG1655 harboring pIbpA-lux assessed as maximum induction factor at 10^-10 M after 120 mins by luminometric analysis; format: functional, K-12 substr. MG1655
Escherichia coli [21] = test: Antibacterial activity against Escherichia coli MG1655 harboring pSoxS-lux assessed as maximum induction factor at 10^-14 M after 120 mins by luminometric analysis; format: functional, K-12 substr. MG1655
[22] = Activation of quorum sensing system luxR in Escherichia coli MG1655 harboring pVFR1-lux assessed as maximum induction factor at 10^-6 M after 120 mins by luminometric analysis; settings: Escherichia coli str. K-12 substr. MG1655
Escherichia coli [23] = test: Antibacterial activity against Escherichia coli MG1655 harboring pIbpA-lux assessed as maximum induction factor at 10^-11 M after 120 mins by luminometric analysis; format: functional, K-12 substr. MG1655
[24] = Activation of quorum sensing system luxR in Escherichia coli MG1655 harboring pVFR1-lux assessed as maximum induction factor at 10^-14 M after 120 mins by luminometric analysis; settings: Escherichia coli str. K-12 substr. MG1655
Escherichia coli [25] = test: Antibacterial activity against Escherichia coli MG1655 harboring pSoxS-lux assessed as maximum induction factor at 10^-10 M after 120 mins by luminometric analysis; format: functional, K-12 substr. MG1655
Escherichia coli [26] = test: Antibacterial activity against Escherichia coli MG1655 harboring pXen7 assessed as toxicity index at 10^-9 M measured for 2 hrs by luminometric analysis; format: functional, K-12 substr. MG1655
[27] = Activation of quorum sensing system luxR in Escherichia coli MG1655 harboring assessed as maximum induction factor at 10^-4 M after 120 mins by luminometric analysis; settings: Escherichia coli str. K-12 substr. MG1655
Vibrio sp. [28] = test: Antibacterial activity against Vibrio aqamarinus VKPM B-11245 assessed as toxicity index at 10^-14 M measured for 2 hrs by luminometric analysis; format: functional
[29] = Activation of quorum sensing system luxR in Escherichia coli MG1655 harboring pVFR1-lux assessed as maximum induction factor at 10^-5 M after 120 mins by luminometric analysis; settings: Escherichia coli str. K-12 substr. MG1655
Escherichia coli [30] = test: Antibacterial activity against Escherichia coli MG1655 harboring pSoxS-lux assessed as maximum induction factor at 10^-3 M after 120 mins by luminometric analysis; format: functional, K-12 substr. MG1655
Escherichia coli [31] = test: Antibacterial activity against Escherichia coli MG1655 harboring pXen7 assessed as toxicity index at 10^-11 M measured for 2 hrs by luminometric analysis; format: functional, K-12 substr. MG1655
Escherichia coli [32] = test: Antibacterial activity against Escherichia coli MG1655 harboring pXen7 assessed as toxicity index at 10^-5 M measured for 2 hrs by luminometric analysis; format: functional, K-12 substr. MG1655
Escherichia coli [33] = test: Antibacterial activity against Escherichia coli MG1655 harboring pKatG-lux assessed as maximum induction factor at 10^-5 M after 120 mins by luminometric analysis; format: functional, K-12 substr. MG1655
Escherichia coli [34] = test: Antibacterial activity against Escherichia coli MG1655 harboring pColD-lux assessed as maximum induction factor at 10^-14 M after 120 mins by luminometric analysis; format: functional, K-12 substr. MG1655
Vibrio sp. [35] = test: Antibacterial activity against Vibrio aqamarinus VKPM B-11245 assessed as toxicity index at 10^-13 M measured for 2 hrs by luminometric analysis; format: functional
Escherichia coli [36] = test: Antibacterial activity against Escherichia coli MG1655 harboring pRecA-lux assessed as maximum induction factor at 10^-9 M after 120 mins by luminometric analysis; format: functional, K-12 substr. MG1655
[37] = Activation of quorum sensing system luxR in Escherichia coli MG1655 harboring pVFR1-lux assessed as maximum induction factor at 10^-9 M after 120 mins by luminometric analysis; settings: Escherichia coli str. K-12 substr. MG1655
Escherichia coli [38] = test: Antibacterial activity against Escherichia coli MG1655 harboring pKatG-lux assessed as maximum induction factor at 10^-8 M after 120 mins by luminometric analysis; format: functional, K-12 substr. MG1655
Escherichia coli [39] = test: Antibacterial activity against Escherichia coli MG1655 harboring pRecA-lux assessed as maximum induction factor at 10^-14 M after 120 mins by luminometric analysis; format: functional, K-12 substr. MG1655

O=[N+]([O-])c1cc([N+](=O)[O-])c2no[n+]([O-])c2c1Sc1nc2ccccc2s1
Activity (Escherichia coli [1]): 99.87
Activity (Escherichia coli [2]): 1.13
Activity (Escherichia coli [3]): 1.1
Activity (Vibrio sp. [4]): 0
Activity (Escherichia coli [5]): 0.87
Activity (Escherichia coli [6]): 1.07
Activity [7]: 1.71
Activity (Escherichia coli [8]): 1.04
Activity (Escherichia coli [9]): 1.01
Activity (Escherichia coli [10]): 0.18
Activity (Escherichia coli [11]): 0.99
Activity (Escherichia coli [12]): 1.08
Activity (Escherichia coli [13]): 0.96
Activity (Escherichia coli [14]): 2.71
Activity (Vibrio sp. [15]): 99.1
Activity (Escherichia coli [16]): 0.91
Activity (Escherichia coli [17]): 1.05
Activity (Escherichia coli [18]): 1.08
Activity (Escherichia coli [19]): 1.07
Activity (Escherichia coli [20]): 1.14
Activity (Escherichia coli [21]): 1.2
Activity [22]: 3.03
Activity (Escherichia coli [23]): 1.47
Activity [24]: 2.87
Activity (Escherichia coli [25]): 1.33
Activity (Escherichia coli [26]): 0
Activity [27]: 0.99
Activity (Vibrio sp. [28]): 5.94
Activity [29]: 1.64
Activity (Escherichia coli [30]): 1.8
Activity (Escherichia coli [31]): 0
Activity (Escherichia coli [32]): 33.59
Activity (Escherichia coli [33]): 0.71
Activity (Escherichia coli [34]): 1.07
Activity (Vibrio sp. [35]): 3.44
Activity (Escherichia coli [36]): 1.02
Activity [37]: 1.74
Activity (Escherichia coli [38]): 0.84
Activity (Escherichia coli [39]): 1.07
